pEC50: −log10 of the molar value.
Key:
[1] = test system: Sl-producing cells, via Adcyap1r1; parameters: method as in PMID 18523122, PMID 19540424, PMID 23422837; settings: grass carp and goldfish; cited from earlier work
[2] = test system: follicle-stimulating hormone β subunit (fshb) gene expression; experiment: Ex vivo pituitary organ culture, real-time PCR of fshb; format: cell-based, medaka (Oryzias latipes); settings: for fshb expression (in words): female pituitaries, 10^-5 M, 24 h, 25 °C, vs vehicle;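 for fshb expression (Fig. 8, fshb): relative expression with female control samples set to 1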
From the text: Fig. 8 Pacap and Vip have pleiotropic effects on the expression of anterior pituitary hormones. The effects of Pacap and Vip on gene expression levels of follicle-stimulating hormone β subunit (fshb), luteinizing hormone β subunit (lhb), thyroid-stimulating hormone β subunit (tshb), growth hormone (gh), somatolactin (sl), prolactin (prl), and pro-opiomelanocortin (pomc) were investigated by using male and female pituitaries cultured ex vivo (n = 6 per group, except male pituitary supplemented with Vip, where n = 5). Data were expressed as means with error bars representing standard error of the mean. Statistical differences were assessed by Dunnett’s post-hoc test. *p < 0.05; **p < 0.01; ***p < 0.001.
The pituitaries from five male or female fish were pooled for each sample and cultured ex vivo in Leibovitz’s L-15 medium supplemented with 5% charcoal-stripped fetal bovine serum as described elsewhere. The medium was further supplemented with 10^−5 M medaka Pacap or Vip, or vehicle alone. After 24 h of culture at 25 °C, the pituitaries were processed for total RNA extraction and cDNA synthesis by using the RNeasy Plus Micro Kit (Qiagen) and SuperScript VILO cDNA Synthesis Kit (Thermo Fisher Scientific), respectively. Real-time PCR was performed on the LightCycler 480 System II using LightCycler 480 SYBR Green I Master (Roche Diagnostics). The cycle conditions were: 95 °C for 5 min followed by 45 cycles of 95 °C for 10 sec, 60 °C for 10 sec and 72 °C for 10 sec. Melting curve analysis was performed as described above. Data were normalized to the geometric mean of three reference genes, actb, gapdh (encoding glyceraldehyde-3-phosphate dehydrogenase; National BioResource Project (NBRP) Medaka clone ID olbrno9_f15) and rpl13 (encoding ribosomal protein L13; NBRP Medaka clone ID olovano51_b24), according to Vandesompele et al.[63]. The primers used for real-time PCR are listed in Supplementary Table 3.

[3] = test system: luteinizing hormone release via Adcyap1r1; parameters: method as in PMID 10949084; settings: goldfish and rat; cited from earlier work
From the text: (§1) Contrary to pomc, fshb expression was female-biased and repressed by Pacap and Vip in a female-specific manner. […] Possibly, Pacap may have a similar mechanism of action in medaka. In medaka, however, the inhibitory effect on fshb is assumed to be primarily driven ...

[4] = test system: Fshb expression, gonadotrophs; settings: dispersed rat pituitary cells; cited from earlier work
From the text: as §1

medaka Adcyap1r1a = experiment: Receptor activation assay, cAMP-responsive luciferase in COS-7 cells; format: cell-based, medaka (Oryzias latipes); settings: for receptor activation, increase in intracellular cAMP levels (in words) / pEC50: COS-7 cells; for receptor activation, increase in intracellular cAMP levels (in words): 6 h; for pEC50: 6 h stimulation, 10^-11 to 10^-5 M, luciferase, triplicate, repeated three times, read-out: half-maximal effective concentration (EC50)
From the text: (§2) The number at each node indicates bootstrap values for 1000 replicates. Scale bar represents 0.1 substitutions per site. SCTR, secretin receptor. For species names and GenBank accession numbers, see Supplementary Table 2. b Ability of Pacap and Vip to activate medaka Pacap/Vip receptors. […] Representative sections of pituitary at different levels along the anterior–posterior axis are shown. Arrowheads indicate expression signals. […] Scale bars represent 50 μm. f Identity of the pituitary cells expressing each Pacap/Vip receptor. The spatial expression pattern of each receptor was compared with that of each pituitary hormone gene in the RPD and PI. Left and middle panels show images of the expression of the indicated receptor (adcyap1r1a, adcyap1r1b, or vipr2b; green) and pituitary hormone gene (sl, prl, or pomc; magenta) in the same sections; right panels show the merged images with nuclear counterstaining (blue). […] Scale bars represent 20 μm. Quantitative data were expressed as means with error bars representing standard error of the mean. […] PI pars intermedia, PPD proximal pars distalis, RPD rostral pars distalis.
(§3) Receptor activation assay was performed essentially as described previously. Medaka Pacap (38 amino acids) and Vip (28 amino acids) polypeptides with amidated C termini were synthesized by Scrum (Tokyo, Japan). cDNA fragments encoding the full-length Adcyap1r1a (GenBank accession number XM_023965124), Adcyap1r1b (XM_011474272), Vipr1a (XM_023950180), Vipr1b (XM_004079106), Vipr2a (XM_023950048) and Vipr2b (XM_023965399) were PCR-amplified and subcloned into the expression vector pcDNA3.1/V5-His-TOPO (Thermo Fisher Scientific). Each of the resulting receptor expression constructs was transiently transfected into COS-7 cells (obtained from and authenticated by Riken BRC Cell Bank), together with the cAMP-responsive luciferase reporter vector pGL4.29 (Promega) and the internal control vector pGL4.74 (Promega) at a ratio of 11:18:1 for 6 h by using Lipofectamine LTX and Plus reagent (Thermo Fisher Scientific). Forty-two hours after transfection, cells were stimulated with Pacap or Vip at doses of 0, 10^−11, 10^−10, 10^−9, 10^−8, 10^−7, 10^−6 and 10^−5 M for 6 h. After cell lysis, luciferase activity was measured by using the Dual-Luciferase Reporter Assay System (Promega). Each assay was performed in triplicate and repeated three times independently.

medaka Vipr2a = experiment: as above; format: cell-based, medaka (Oryzias latipes); settings: for receptor activation, increase in intracellular cAMP levels (in words) / pEC50: COS-7 cells; for receptor activation, increase in intracellular cAMP levels (in words): 6 h; for pEC50: 6 h stimulation, 10^-11 to 10^-5 M, luciferase, triplicate, repeated three times, read-out: half-maximal effective concentration (EC50)
From the text: as §2, §3

medaka Vipr2b = experiment: as above; format: cell-based, medaka (Oryzias latipes); settings: for receptor activation, increase in intracellular cAMP levels (in words) / pEC50: COS-7 cells; for receptor activation, increase in intracellular cAMP levels (in words): 6 h; for pEC50: 6 h stimulation, 10^-11 to 10^-5 M, luciferase, triplicate, repeated three times, read-out: half-maximal effective concentration (EC50)
From the text: as §2, §3

medaka Vipr1b = experiment: as above; format: cell-based, medaka (Oryzias latipes); settings: for receptor activation, increase in intracellular cAMP levels (in words) / pEC50: COS-7 cells; for receptor activation, increase in intracellular cAMP levels (in words): 6 h; for pEC50: 6 h stimulation, 10^-11 to 10^-5 M, luciferase, triplicate, repeated three times, read-out: half-maximal effective concentration (EC50)
From the text: as §2, §3

medaka Vipr1a = experiment: as above; format: cell-based, medaka (Oryzias latipes); settings: for receptor activation, increase in intracellular cAMP levels (in words) / pEC50: COS-7 cells; for receptor activation, increase in intracellular cAMP levels (in words): 6 h; for pEC50: 6 h stimulation, 10^-11 to 10^-5 M, luciferase, triplicate, repeated three times, read-out: half-maximal effective concentration (EC50)
From the text: as §2, §3

medaka Adcyap1r1b = experiment: as above; format: cell-based, medaka (Oryzias latipes); settings: for receptor activation, increase in intracellular cAMP levels (in words) / pEC50: COS-7 cells; for receptor activation, increase in intracellular cAMP levels (in words): 6 h; for pEC50: 6 h stimulation, 10^-11 to 10^-5 M, luciferase, triplicate, repeated three times, read-out: half-maximal effective concentration (EC50)
From the text: as §2, §3

Substance: Pituitary adenylate cyclase-activating polypeptide [Pacap]
- synthesis and release of Sl (in words) [1]: stimulate the synthesis and release of Sl via Adcyap1r1
- fshb expression (in words) [2]: significantly reduced
- fshb expression (Fig. 8, fshb) ([2]; female, replicate 1): 0.383
- fshb expression (Fig. 8, fshb) ([2]; female, replicate 2): 0.806
- fshb expression (Fig. 8, fshb) ([2]; female, replicate 3): 0.807
- fshb expression (Fig. 8, fshb) ([2]; female, replicate 4): 0.427
- fshb expression (Fig. 8, fshb) ([2]; female, replicate 5): 0.650
- fshb expression (Fig. 8, fshb) ([2]; female, replicate 6): 0.545
- fshb expression (Fig. 8, fshb) ([2]; male, replicate 1): 0.173
- fshb expression (Fig. 8, fshb) ([2]; male, replicate 2): 0.236
- fshb expression (Fig. 8, fshb) ([2]; male, replicate 3): 0.293
- fshb expression (Fig. 8, fshb) ([2]; male, replicate 4): 0.230
- fshb expression (Fig. 8, fshb) ([2]; male, replicate 5): 0.290
- fshb expression (Fig. 8, fshb) ([2]; male, replicate 6): 0.452
- release of luteinizing hormone (in words) [3]: directly stimulates the release of luteinizing hormone via Adcyap1r1
- fshb expression (in words) [4]: acts directly on gonadotrophs to inhibit Fshb expression
- receptor activation, increase in intracellular cAMP levels (in words) (medaka Adcyap1r1a): dose-dependently activated all six receptors
- pEC50 (medaka Adcyap1r1a): 9.61
- greater potency of Pacap as compared with Vip (medaka Adcyap1r1a; ratio of EC50): over 100 fold
- potency of Pacap and Vip compared (in words) (medaka Vipr2a): fairly similar potencies
- receptor activation, increase in intracellular cAMP levels (in words) (medaka Vipr2a): dose-dependently activated all six receptors
- pEC50 (medaka Vipr2a): 5.45
- potency of Pacap and Vip compared (in words) (medaka Vipr2b): fairly similar potencies
- receptor activation, increase in intracellular cAMP levels (in words) (medaka Vipr2b): dose-dependently activated all six receptors
- pEC50 (medaka Vipr2b): 5.56
- receptor activation, increase in intracellular cAMP levels (in words) (medaka Vipr1b): dose-dependently activated all six receptors
- pEC50 (medaka Vipr1b): 7.83
- Pacap less potent as compared with Vip (medaka Vipr1b; ratio of EC50, Pacap is the weaker): approximately 20 fold
- potency of Pacap and Vip compared (in words) (medaka Vipr1a): fairly similar potencies
- receptor activation, increase in intracellular cAMP levels (in words) (medaka Vipr1a): dose-dependently activated all six receptors
- pEC50 (medaka Vipr1a): 9.07
- receptor activation, increase in intracellular cAMP levels (in words) (medaka Adcyap1r1b): dose-dependently activated all six receptors
- pEC50 (medaka Adcyap1r1b): 9.94
- greater potency of Pacap as compared with Vip (medaka Adcyap1r1b; ratio of EC50): over 100 fold

Substance: vasoactive intestinal peptide [Vip]
- fshb expression (in words) [2]: significantly reduced
- fshb expression (Fig. 8, fshb) ([2]; female, replicate 1): 0.539
- fshb expression (Fig. 8, fshb) ([2]; female, replicate 2): 0.835
- fshb expression (Fig. 8, fshb) ([2]; female, replicate 3): 0.607
- fshb expression (Fig. 8, fshb) ([2]; female, replicate 4): 0.498
- fshb expression (Fig. 8, fshb) ([2]; female, replicate 5): 0.542
- fshb expression (Fig. 8, fshb) ([2]; female, replicate 6): 0.944
- fshb expression (Fig. 8, fshb) ([2]; male, replicate 1): 0.537
- fshb expression (Fig. 8, fshb) ([2]; male, replicate 2): 0.688
- fshb expression (Fig. 8, fshb) ([2]; male, replicate 3): 0.453
- fshb expression (Fig. 8, fshb) ([2]; male, replicate 5): 0.338
- fshb expression (Fig. 8, fshb) ([2]; male, replicate 6): 0.319
- receptor activation, increase in intracellular cAMP levels (in words) (medaka Adcyap1r1a): dose-dependently activated all six receptors
- pEC50 (medaka Adcyap1r1a): 7.49
- potency of Pacap and Vip compared (in words) (medaka Vipr2a): fairly similar potencies
- receptor activation, increase in intracellular cAMP levels (in words) (medaka Vipr2a): dose-dependently activated all six receptors
- pEC50 (medaka Vipr2a): 5.61
- potency of Pacap and Vip compared (in words) (medaka Vipr2b): fairly similar potencies
- receptor activation, increase in intracellular cAMP levels (in words) (medaka Vipr2b): dose-dependently activated all six receptors
- pEC50 (medaka Vipr2b): 5.37
- receptor activation, increase in intracellular cAMP levels (in words) (medaka Vipr1b): dose-dependently activated all six receptors
- pEC50 (medaka Vipr1b): 9.14
- potency of Pacap and Vip compared (in words) (medaka Vipr1a): fairly similar potencies
- receptor activation, increase in intracellular cAMP levels (in words) (medaka Vipr1a): dose-dependently activated all six receptors
- pEC50 (medaka Vipr1a): 9.37
- receptor activation, increase in intracellular cAMP levels (in words) (medaka Adcyap1r1b): dose-dependently activated all six receptors
- pEC50 (medaka Adcyap1r1b): 7.75
